In paper PMC3934494 (Chemistry & biology, 2013):
Like-named read-outs stand apart in the source and are kept apart here.

Assays:
Microsomal stability [1] = type: in vitro ADME; conditions: human microsomes
Microsomal stability [2] = type: in vitro ADME; conditions: rat microsomes
WT clade B virus = experiment: PhenoSense HIV antiviral assay; type: cell-based
[3] = system: 12 patient-derived drug resistant viruses; experiment: PhenoSense HIV antiviral assay; type: cell-based
[4] = biological target: HIV-1 protease variant M3: I50V/A71V (Human immunodeficiency virus type 1 group M subtype B, UniProt P04585, A559V/I538V); experiment: FRET-based enzymatic assay, enzyme inhibition constants; type: biochemical; conditions: M3 versus WT protease
WT HIV-1 protease = WT HIV-1 protease (Human immunodeficiency virus type 1 group M subtype B, UniProt P04585); conditions: FDA-approved drugs, ref Nalam, et al., 2010; cited from earlier work

| Structure (SMILES) | Microsomal Stability (Avg. % Fraction Remaining) at 30 Minutes Human (Microsomal stability [1]; RTV +) [%] | Microsomal Stability (Avg. % Fraction Remaining) at 30 Minutes Human (Microsomal stability [1]; RTV −) [%] | Microsomal Stability (Avg. % Fraction Remaining) at 60 Minutes Human (Microsomal stability [1]; RTV +) [%] | Microsomal Stability (Avg. % Fraction Remaining) at 60 Minutes Human (Microsomal stability [1]; RTV −) [%] | Microsomal CLint Human (Microsomal stability [1]; RTV +) [μL min^-1 mg^1] | Microsomal T1/2 Human (Microsomal stability [1]; RTV +) [min] | Microsomal CLint Human (Microsomal stability [1]; RTV −) [μL min^-1 mg^1] | Microsomal T1/2 Human (Microsomal stability [1]; RTV −) [min] | Microsomal Stability (Avg. % Fraction Remaining) at 30 Minutes Rat (Microsomal stability [2]; RTV +) [%] | Microsomal Stability (Avg. % Fraction Remaining) at 30 Minutes Rat (Microsomal stability [2]; RTV −) [%] | Microsomal Stability (Avg. % Fraction Remaining) at 60 Minutes Rat (Microsomal stability [2]; RTV +) [%] | Microsomal Stability (Avg. % Fraction Remaining) at 60 Minutes Rat (Microsomal stability [2]; RTV −) [%] | Microsomal CLint Rat (Microsomal stability [2]; RTV +) [μL min^-1 mg^1] | Microsomal T1/2 Rat (Microsomal stability [2]; RTV +) [min] | Microsomal CLint Rat (Microsomal stability [2]; RTV −) [μL min^-1 mg^1] | Microsomal T1/2 Rat (Microsomal stability [2]; RTV −) [min] | EC50 (WT clade B virus; WT clade B virus) | also measured |
| --- | --- | --- | --- | --- | --- | --- | --- | --- | --- | --- | --- | --- | --- | --- | --- | --- | --- | --- |
| CC[C@H](C)CN(C[C@@H](O)[C@H](Cc1ccccc1)NC(=O)O[C@H]1CO[C@H]2OCC[C@H]21)S(=O)(=O)c1ccc(N)cc1 [10a] | 81 | 42 | 66 | 19 | 21 | 99 | 81 | 26 | 51 | 24 | 35 | 9 | 67 | 31 | 129 | 16 |  |  |
| CC[C@H](C)CN(C[C@@H](O)[C@H](Cc1ccccc1)NC(=O)O[C@H]1CO[C@H]2OCC[C@H]21)S(=O)(=O)c1ccc(OC)cc1 [10b] | 79 | 0 | 68 | 0 | 19 | 110 | 776 | 3 | 0 | 0 | 0 | 0 | 518 | 4 | 885 | 2 | more potent | EC50 ([3]; read-out: average EC50, average against 12 different drug resistant strains): 1.33 nM |
| CC[C@H](C)CN(C[C@@H](O)[C@H](Cc1ccccc1)NC(=O)O[C@H]1CO[C@H]2OCC[C@H]21)S(=O)(=O)c1ccc(CO)cc1 [10c] | 93 | 0 | 89 | 0 | 8 | >180 | 590 | 4 | 45 | 0 | 22 | 0 | 79 | 26 | 664 | 3 |  |  |
| CC[C@H](C)CN(C[C@@H](O)[C@H](Cc1ccccc1)NC(=O)O[C@H]1CO[C@H]2OCC[C@H]21)S(=O)(=O)c1ccc2c(c1)OCO2 [10d] | 80 | 9 | 60 | 4 | 24 | 85 | 232 | 9 | 0 | 0 | 0 | 0 | 771 | 3 | 987 | 2 | more potent |  |
| CCC(CC)CN(C[C@@H](O)[C@H](Cc1ccccc1)NC(=O)O[C@H]1CO[C@H]2OCC[C@H]21)S(=O)(=O)c1ccc(OC)cc1 [11b] | 75 | 0 | 66 | 0 | 23 | 90 | 844 | 2 | 50 | 18 | 20 | 19 | 74 | 28 | 150 | 14 | more potent |  |
| CCC(CC)CN(C[C@@H](O)[C@H](Cc1ccccc1)NC(=O)O[C@H]1CO[C@H]2OCC[C@H]21)S(=O)(=O)c1ccc(CO)cc1 [11c] | 64 | 0 | 69 | 0 | 26 | 81 | 829 | 3 | 79 | 0 | 57 | 0 | 27 | 78 | 907 | 2 |  |  |
| CCC(CC)CN(C[C@@H](O)[C@H](Cc1ccccc1)NC(=O)O[C@H]1CO[C@H]2OCC[C@H]21)S(=O)(=O)c1ccc2c(c1)OCO2 [11d] | 55 | 0 | 46 | 0 | 46 | 45 | 617 | 3 | 21 | 0 | 4 | 0 | 156 | 13 | 712 | 3 |  |  |
| CC(C)CN(C[C@@H](O)[C@H](Cc1ccccc1)NC(=O)O[C@H]1CO[C@H]2OCC[C@H]21)S(=O)(=O)c1ccc(N)cc1 [DRV, Darunavir] |  |  |  |  |  |  |  |  |  |  |  |  |  |  |  |  |  | decrease in M3 susceptibility compared to WT protease [4]: 50 fold; EC50 (WT clade B virus): 0.4 nM; EC50 ([3]; Human immunodeficiency virus 1, read-out: average EC50): 5.98 nM; antiviral potency ([3]; MDR strains with the I50V protease mutation): loses significant potency |
| Cc1cccc(C)c1OCC(=O)N[C@@H](Cc1ccccc1)[C@@H](O)C[C@H](Cc1ccccc1)NC(=O)[C@H](C(C)C)N1CCCNC1=O [LPV] |  |  |  |  |  |  |  |  |  |  |  |  |  |  |  |  |  | Ki (WT HIV-1 protease): 0.005 nM |
